Measured values: patent US6017934A, “Thrombin inhibitors” (Merck & Co., Inc., priority 1998, dated 2000)
Residues, ends and D or L forms follow the SMILES beside them.

Tests used:
Type in all cases: biochemical
human a-thrombin [1] = target: T1, human a-thrombin (Homo sapiens, UniProt P00734); experiment: In vitro thrombin inhibition (Ki); conditions: 25° C., 0.05 M TRIS pH 7.4, 0.15 M NaCl, 0.1% PEG; read-out: trombin Ki
Experimental: (§1) Assays of human a-thrombin and human trypsin were performed at 25° C. in 0.05 M TRIS buffer pH 7.4, 0.15 M NaCl, 0.1% PEG. Trypsin assays also contained 1 mM CaCl2.
(§2) Concentrations of stock solutions of Z-GPR-afc were determined from measurements of absorbance at 380 nm of the 7-amino-4-trifluoromethyl coumarin produced upon complete hydrolysis of an aliquot of the stock solution by thrombin.
Times required to achieve equilibration between enzyme and inhibitor were determined in control experiments. Initial velocities of product formation in the absence (Vo) or presence of inhibitor (Vi) were measured. Assuming competitive inhibition, and that unity is negligible compared Km /[S], […] (where [S], [I], and e respectively represent the total concentrations, of substrate, inhibitor and enzyme), the equilibrium constant (Ki) for dissociation of the inhibitor from the enzyme can be obtained from the dependence of Vo /Vi on [I] shown in equation 1.

human a-thrombin [2] = target: T1, human a-thrombin; experiment: Thrombin catalyzed hydrolysis of fluorogenic substrate; conditions: 500 nm (excitation 400 nm)
Experimental: as §1, §2

human trypsin = experiment: Rate of hydrolysis of p-nitroanilide substrate by trypsin; conditions: 405 nm, 1 mM CaCl2
Experimental: as §1

| Structure (SMILES) | Ki (human a-thrombin [1]) [nM] | also measured |
| --- | --- | --- |
| Cc1cc(Sc2ccccc2)c(N)c(=O)n1CC(=O)NCc1cc(Cl)ccc1OCC(=O)NC1CC1 | < 10 |  |
| Cc1nc(N)ccc1CNC(=O)Cn1c(C)cc(Sc2ccccc2)c(NS(C)(=O)=O)c1=O | > 10 |  |
| N=C(N)NCCC[C@H](NC(=O)[C@@H]1CCCN1C(=O)CNC(=O)OCc1ccccc1)C(=O)Nc1ccc2c(C(F)(F)F)cc(=O)oc2c1 [Z-GPR-afc, Cbz-Gly-Pro-Arg-7-amino-4-trifluoromethylcoumarin] (HELM PEPTIDE1{[O=C(OCc1ccccc1)[*:2]].G.P.R.[O=c1cc(C(F)(F)F)c2ccc(N[*:1])cc2o1]}$$$$V2.0) |  | Km (human a-thrombin [2]): 27 µM |
| CNCC(=O)N1CCC[C@H]1C(=O)N[C@@H](CCCNC(=N)N)C(=O)Nc1ccc([N+](=O)[O-])cc1 [sar-PR-pna, sarcosine-Pro-Arg-p-nitroanilide] (HELM PEPTIDE1{[Sar].P.R.[O=[N+]([O-])c1ccc(N[*:1])cc1]}$$$$V2.0) |  | Km (human trypsin): 59 µM |
